The source of these data is US10881663B2, “Method of treating pain in elderly patients with mild renal impairment” (Baudax Bio, Inc., priority 2018, dated 2021).

The term Cmax denotes the peak of the concentration-time curve. Broadly, the Tmax is the time at which the peak concentration occurs.

Data set [1] can be described thus: Single-dose IV meloxicam pharmacokinetics in elderly subjects with mild renal impairment vs healthy controls (Example 3). To be noted: single IV dose 30 mg; for AUC(0-6) / AUC(0-t) / AUC(0-inf) / Cmax: iv, 30 mg; for AUC(0-6): AUC0-6 (Mean ± SD), heading: AUC0-6. The format is in vivo, human. As for the experimental part: This study was a single-center, open-label evaluation of the pharmacokinetics and safety, of single doses of meloxicam in elderly subjects with impaired renal function compared with healthy controls. The study enrolled 12 subjects. Eligible subjects were assigned to a study cohort based on their age and renal function. Renal function was assessed using below the equation for estimation of the glomerular filtration rate (GFR).
SCr=serum creatinine measured with a standardized assay.
Enrolled subjects were matched between cohorts according to gender and BMI (±20%).
Enrolled subjects returned to the study center on the day before dosing (Day −1).

Data set [2] is described as follows: Safety of single IV dose 30 mg meloxicam (Example 3). It counts as in vivo, human. As for the experimental part: This study was a single-center, open-label evaluation of the pharmacokinetics and safety, of single doses of meloxicam in elderly subjects with impaired renal function compared with healthy controls. The study enrolled 12 subjects. Eligible subjects were assigned to a study cohort based on their age and renal function. Renal function was assessed using below the equation for estimation of the glomerular filtration rate (GFR). GFR(mL/min/1.73 m^2)=175×(SCr)^−1.154×(Age)^−0.203×(0.742 if female)×(1.212 if African American)
Enrolled subjects were matched between cohorts according to gender and BMI (±20%). Subjects were assigned to cohorts as follows: • Cohort 1 (n=6; 3 male, 3 female): subjects aged 65 to 80 years with impaired renal function (GFR 60-89 mL/min/1.73 m^2) • Cohort 2 (n=6; 3 male, 3 female): subjects aged 18 to 55 years with normal renal function (GFR≥90 mL/min/1.73 m^2).
Enrolled subjects returned to the study center on the day before dosing (Day −1). During the treatment visit (Day −1 to Day 3), subjects received a single IV dose 30 mg (25 mg/mL) meloxicam. Whole blood samples were collected for pharmacokinetic (PK) analysis prior to dosing and 5, 10, 20, 30, and 45 minutes, and 1, 2, 4, 6, 12, 18, 24, 36, and 48 hours after dosing.
Safety assessments included monitoring of AEs (adverse events), clinical laboratory tests, vital sign measurements, and ECGs. Upon completion of the treatment visit through Hour 48 (Day 3) assessments, the subjects were discharged from the study center.

A short description of data set [3]: Postoperative opioid analgesic use, IV meloxicam 30 mg vs placebo (Example 4). It counts as in vivo, human. The following applies: for reduction in opioid use compared with placebo: 30 mg IV, p<0.05.
Data set [4] is described as follows: Injection site pain reported after intravenous meloxicam. It counts as in vivo, human. To be noted: patients receiving a dose of intravenous meloxicam.
A short description of data set [5]: Safety of repeat-dose IV meloxicam 30 mg after major surgery in elderly subjects with impaired renal function (Example 4). The following applies: for tolerability: advanced age.
For data set [6] the following is noted: intravenous; Ketorolac Tromethamine Injection Prescribing Information; cited from earlier work.

“Also recorded” adds a separate entry of the source. Where two headings read alike, the source gives them in different places.

For `Cc1cnc(NC(=O)C2=C(O)c3ccccc3S(=O)(=O)N2C)s1` [meloxicam, 4-hydroxy-2-methyl-N-(5-methyl-2-thiazolyl)-2H-1,2-benzothiazine-3-carboxamide-1,1-dioxide], the AUC(0-6) was 16100 ± 1700 ng·h/mL in data set [1] (both sexes, human, plasma, Cohort 1 (65-80 years, mild renal impairment)) and 16300 ± 2170 ng·h/mL in data set [1] (both sexes, human, plasma, Cohort 2 (18-55 years, normal renal function)). Further, the AUC(0-t) in data set [1] (both sexes, human, plasma, Cohort 1 (65-80 years, mild renal impairment), read-out: AUC0-12 (Mean ± SD)) was found to be 26000 ± 2690 ng·h/mL; in data set [1] (both sexes, human, plasma, Cohort 1 (65-80 years, mild renal impairment), read-out: AUC0-24 (Mean ± SD)) it was 40600 ± 4750 ng·h/mL; in data set [1] (both sexes, human, plasma, Cohort 1 (65-80 years, mild renal impairment), read-out: AUC0-t (Mean ± SD)), 70900 ± 18500 ng·h/mL; in data set [1] (both sexes, human, plasma, Cohort 1 (mild renal impairment), read-out: AUC0-t, Least Square Geometric Mean) it was 69100 ng·h/mL; in data set [1] (both sexes, human, plasma, Cohort 2 (18-55 years, normal renal function), read-out: AUC0-12 (Mean ± SD)), 26400 ± 3920 ng·h/mL; in data set [1] (both sexes, human, plasma, Cohort 2 (18-55 years, normal renal function), read-out: AUC0-24 (Mean ± SD)) it was 41000 ± 8670 ng·h/mL. In addition, the AUC(0-t) in data set [1] (both sexes, human, plasma, Cohort 2 (18-55 years, normal renal function), read-out: AUC0-t (Mean ± SD)) came out at 67900 ± 22500 ng·h/mL; in data set [1] (both sexes, human, plasma, Cohort 2 (healthy control), read-out: AUC0-t, Least Square Geometric Mean) it was 64500 ng·h/mL. Also, the AUC(0-inf) was determined as 71800 ± 19600 ng·h/mL in data set [1] (both sexes, human, plasma, Cohort 1 (65-80 years, mild renal impairment), read-out: AUC0-∞ (Mean ± SD)); 69800 ng·h/mL in data set [1] (both sexes, human, plasma, Cohort 1 (mild renal impairment), read-out: AUC0-∞, Least Square Geometric Mean); 68500 ± 22800 ng·h/mL in data set [1] (both sexes, human, plasma, Cohort 2 (18-55 years, normal renal function), read-out: AUC0-∞ (Mean ± SD)); 65100 ng·h/mL in data set [1] (both sexes, human, plasma, Cohort 2 (healthy control), read-out: AUC0-∞, Least Square Geometric Mean). Moreover, the Cmax in data set [1] (both sexes, human, plasma, Cohort 1 (mild renal impairment), read-out: Cmax, Least Square Geometric Mean) came out at 5870 ng/mL; in data set [1] (both sexes, human, plasma, Cohort 1: aged 65 to 80 years, GFR 60-89 mL/min/1.73 m^2, plasma, read-out: Cmax (Mean ± SD)) it was 5920 ± 842 ng/mL; in data set [1] (both sexes, human, plasma, Cohort 2 (healthy control), read-out: Cmax, Least Square Geometric Mean), 5580 ng/mL; in data set [1] (both sexes, human, plasma, Cohort 2: aged 18 to 55 years, normal renal function, plasma, read-out: Cmax (Mean ± SD)), 5620 ± 713 ng/mL. The Tmax in data set [1] (both sexes, human, plasma, all subjects (both cohorts)) turned out to be 4.8 min. The “AUC0-t, Least Square Geometric Mean Ratio (%) (Cohort 1/Cohort 2)” value in data set [1] is reported as 107%. Also, the “AUC0-∞, Least Square Geometric Mean Ratio (%) (Cohort 1/Cohort 2)” value in data set [1] turned out to be 107%. Moreover, in data set [1], the “Cmax, Least Square Geometric Mean Ratio (%) (Cohort 1/Cohort 2)” value amounted to 105%. The “Tmax, Median (range)” value in data set [1] (Cohort 1 (65-80 years, mild renal impairment)) is 0.08 (0.08-0.08) h; in data set [1] (Cohort 2 (18-55 years, normal renal function)), 0.08 (0.08-0.08) h. In data set [2] (30 mg as an IV infusion over 17-20 seconds), the “infusion or infusion site reactions” value is “not associated with any infusion, or infusion site, reactions”. The “intensity of AEs” value in data set [2] (single IV dose 30 mg) and in data set [5] (30 mg IV every 24 hours up to 7 doses) was “generally mild or moderate in intensity” throughout. Further, the “vital sign or ECG findings” value in data set [2] (single IV dose 30 mg) is recorded as “no clinically significant vital sign or ECG (electrocardiogram) findings”. Further, the “incidence of adverse events (subjects with any event)” value in data set [2] (single IV dose 30 mg, all 12 subjects) is listed as 33.3%. Moreover, the tolerability entry in data set [2] (single IV dose 30 mg, healthy subjects and subjects with mild renal impairment) is “well tolerated with no incidence of death, SAEs (severe adverse events), or discontinuations due to an AE; also recorded: safe and well tolerated”; in data set [5] (30 mg IV every 24 hours up to 7 doses after major surgery, impaired renal function) it was “well tolerated”; in data set [5] (30 mg IV every 24 hours up to 7 doses after major surgery, impaired renal function, listed as IV meloxicam), “well tolerated with no deaths or discontinuations due to an AE”. Moreover, the “reduction in opioid use compared with placebo” value was 42.8% in data set [3] (Hour 0-24 interval) and 41.9% in data set [3] (Hour 24-48 interval). In addition, in data set [3] (during treatment, 30 mg IV daily), the “statistically significant reductions in opioid use compared with placebo” value is given as “up to 42.8%”. Besides, the “patients who reported injection site pain” value in data set [4] turned out to be 2%. In addition, the “incidence of SAEs” value in data set [5] (30 mg IV every 24 hours up to 7 doses after major surgery, age 66-80 years, impaired renal function) turned out to be 2.3%. For the same compound, the “injection site AEs” value in data set [5] (30 mg IV over 15-30 seconds every 24 hours up to 7 doses) was “no injection site AEs”.

`O=C(c1ccccc1)c1ccc2n1CCC2C(=O)O` (stereo not drawn) [ketorolac]: the “onset of pain relief” value in data set [6] was “up to 30 minutes”.
